The values that follow come from patent publication US20050208290A1, “Thick radiation sensitive devices” (priority 2003, published 2005).

This series in a line: preliminary toxicity study. The note with it: no details given.

For the molecule `CCCCCCNC(=O)OCC#CC#CCOC(=O)NCCCCCC` [compound 166, 2,4-hexadiyn-1,6-bis(n-hexylurethane)], the toxicity entry was “nontoxic”.
